# Biological target: Enteropeptidase (Homo sapiens, UniProt P98073)
# Test: Enteropeptidase Inhibition Assay: The inhibitory activity of the enteropeptidase inhibitor synthesized using the purified Recombinant Human Enteropeptidase and the substrate Acetyl-Asp-Asp-Asp-Asp-Lys-AFC (BioVision) was measured. 7.2 ng/mL of Enteropeptidase diluted with a buffer (20 mM Tris, 50 mM NaCl, pH 7.5) in a 96 well plate (Costar), 30 μM of Acetyl-Asp-Asp-Asp-Asp-Lys-AFC, several concentrations of Enteropeptidase inhibitors (1% DMSO concentration) were dispensed such that a final volume was 100 μL, and then the enzyme reaction was carried out at 30° C. for 1 hour. At this time, 1% DMSO, a substrate and Enteropeptidase instead of the compound were dispensed onto positive control wells, and 1% DMSO and a substrate were dispensed onto negative control wells. The enzyme reaction was started using an excitation wavelength of 380 nm and an emission wavelength of 500 nm in a fluorescence spectrometer, and then the rate of increase in fluorescence (milli-units per min) between 20 and 60 minutes was measured.
# Enteropeptidase, sequence (P98073 2-784 limits assumed): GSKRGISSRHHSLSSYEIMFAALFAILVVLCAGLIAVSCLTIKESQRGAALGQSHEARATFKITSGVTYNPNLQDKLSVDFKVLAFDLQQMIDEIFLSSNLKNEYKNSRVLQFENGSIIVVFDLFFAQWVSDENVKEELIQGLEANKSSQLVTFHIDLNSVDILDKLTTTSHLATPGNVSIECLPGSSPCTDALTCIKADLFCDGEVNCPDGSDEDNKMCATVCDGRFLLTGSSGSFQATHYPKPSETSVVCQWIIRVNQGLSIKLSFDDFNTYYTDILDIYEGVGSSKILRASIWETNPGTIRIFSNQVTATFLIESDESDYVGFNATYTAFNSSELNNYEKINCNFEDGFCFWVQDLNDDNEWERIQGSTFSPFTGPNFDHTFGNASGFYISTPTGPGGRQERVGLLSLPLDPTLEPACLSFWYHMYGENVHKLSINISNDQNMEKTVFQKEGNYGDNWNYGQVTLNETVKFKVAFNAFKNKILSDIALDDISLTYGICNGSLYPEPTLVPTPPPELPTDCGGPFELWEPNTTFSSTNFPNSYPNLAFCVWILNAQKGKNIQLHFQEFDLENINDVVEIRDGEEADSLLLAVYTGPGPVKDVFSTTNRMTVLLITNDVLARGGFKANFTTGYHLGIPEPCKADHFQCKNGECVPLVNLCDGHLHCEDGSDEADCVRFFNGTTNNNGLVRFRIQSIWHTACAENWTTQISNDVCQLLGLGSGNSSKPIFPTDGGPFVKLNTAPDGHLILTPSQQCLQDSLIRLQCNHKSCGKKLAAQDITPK
# Enteropeptidase, sequence (P98073 785-1019 limits assumed): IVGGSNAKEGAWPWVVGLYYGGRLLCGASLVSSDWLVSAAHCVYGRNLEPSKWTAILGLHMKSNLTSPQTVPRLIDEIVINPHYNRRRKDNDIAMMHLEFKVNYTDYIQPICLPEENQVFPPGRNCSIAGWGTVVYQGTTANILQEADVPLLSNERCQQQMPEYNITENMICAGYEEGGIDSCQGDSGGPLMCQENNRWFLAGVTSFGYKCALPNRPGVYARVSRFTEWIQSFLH
row,Ki,SMILES
1,0.68 nM,CCN(CCC(=O)O)c1ncc(C(=O)Oc2ccc(C(=N)N)cc2F)s1
2,8.2 nM,N=C(N)c1ccc(OC(=O)c2cnc(N3CCC(C(=O)N[C@@H](CC(=O)OCc4ccccc4)C(=O)OCc4ccccc4)CC3)s2)c(F)c1
